Consider two molecules from patent US20040209799A1, “JAK/STAT pathway inhibitors and the uses thereof” (priority 2000, published 2004).

The target in one test is T1, JAK3 (Homo sapiens, UniProt P52333).
T1 sequence (P52333 1-1124): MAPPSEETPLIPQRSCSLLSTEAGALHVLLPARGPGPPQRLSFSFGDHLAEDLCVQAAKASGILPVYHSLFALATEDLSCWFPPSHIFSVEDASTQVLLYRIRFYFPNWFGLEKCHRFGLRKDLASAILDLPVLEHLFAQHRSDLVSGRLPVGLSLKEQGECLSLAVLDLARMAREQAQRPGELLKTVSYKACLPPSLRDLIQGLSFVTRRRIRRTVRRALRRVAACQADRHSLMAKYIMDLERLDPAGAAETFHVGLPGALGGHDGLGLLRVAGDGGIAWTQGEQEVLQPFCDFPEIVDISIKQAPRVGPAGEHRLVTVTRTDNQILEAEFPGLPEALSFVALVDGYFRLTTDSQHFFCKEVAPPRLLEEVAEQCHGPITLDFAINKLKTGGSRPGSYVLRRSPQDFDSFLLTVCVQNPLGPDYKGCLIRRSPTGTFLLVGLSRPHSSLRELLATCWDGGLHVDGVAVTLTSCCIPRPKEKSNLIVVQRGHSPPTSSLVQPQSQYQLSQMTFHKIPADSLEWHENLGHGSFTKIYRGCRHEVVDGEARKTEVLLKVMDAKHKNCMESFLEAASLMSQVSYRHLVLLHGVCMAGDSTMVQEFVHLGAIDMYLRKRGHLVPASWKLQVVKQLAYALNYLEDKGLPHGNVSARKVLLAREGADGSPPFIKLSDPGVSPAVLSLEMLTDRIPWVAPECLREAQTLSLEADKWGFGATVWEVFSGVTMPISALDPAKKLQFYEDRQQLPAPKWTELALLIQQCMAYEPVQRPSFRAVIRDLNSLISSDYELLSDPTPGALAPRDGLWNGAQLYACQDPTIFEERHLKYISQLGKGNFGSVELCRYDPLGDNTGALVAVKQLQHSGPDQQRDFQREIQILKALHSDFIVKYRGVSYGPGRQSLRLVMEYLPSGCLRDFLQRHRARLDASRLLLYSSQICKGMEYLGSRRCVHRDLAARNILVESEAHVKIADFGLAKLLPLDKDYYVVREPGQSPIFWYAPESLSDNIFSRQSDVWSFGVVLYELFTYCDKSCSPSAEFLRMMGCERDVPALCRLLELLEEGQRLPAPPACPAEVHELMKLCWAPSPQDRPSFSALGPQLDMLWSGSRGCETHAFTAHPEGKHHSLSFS
Nature of the test: tyrosine kinase ELISA, DBH inhibition of JAK3 (Example 6). It is filed as biochemical. The conditions noted are these: GAS 1 biotinylated peptide substrate, 0-1250 μM ATP, 30 min at 37° C., read-out: inhibition constant (Ki). Here is the method: Nunc-Immunoplate Maxisorp flat-bottomed capture plates (Nalge Nunc International, Rochester, N.Y.) were coated with 80 μl/well anti-phosphotyrosine PY54 MAb antibody (Transduction Labs, Lexington, Ky.), diluted to 2 μg/ml in coating buffer (10 mM phosphate, pH 7.2+0.02% NaN3), and allowed to adsorb overnight at 4° C. The plates were washed (all washes are 4× with TBST: 25 mM Tris/HCl, pH 8.0, 150 mM NaCl+0.05% Tween-20), and 200 μl/well of blocking buffer (TBST+1% BSA) was added. The plates were sealed and incubated at 37° C. for 60 min or overnight at 4° C., and washed again.
Kinase reactions were run in 50 μl volumes with biotinylated peptide substrate in a round-bottom plate (Corning, Corning, N.Y.). Kinase reactions mixtures contained; 20 μl 50 μM GAS 1 biotinylated peptide (LCBiotin-EGPWLEEEEEAYGWMDF-amide), 0-1250 μM ATP in kinase buffer, 10 μl 50 mM MgCl2 in 2× kinase buffer (50 mM imidazole/HCl, 2 mM EDTA, 0.2 mM EDTA, 0.030% Brij-35, pH 6.8), 10 μl 0-50 μM DBH in water containing 0.2% Pluronic-104 and 3% dimethyl sulfoxide (DMSO), and 10 μl JAK3 enzyme diluted in kinase buffer. A phosphopeptide standard curve (0-10 nM) using kinase buffer as the diluent was also tested.
Kinase reactions were run for 30 min at 37° C., then stopped by adding 15 μl/well of 0.125 M EDTA, pH 6.8. […] Samples were read at A450-A620.

For test [1], the system named is rhIL-1β-induced mRNAs in human articular chondrocytes. Nature of the test: northern blot, rhIL-1β-induced mRNAs, comparison of DBH forms (some mRNAs, not named). It is filed as cell-based. The settings on record: 5 μM, for some mRNAs. As to the method:
Frozen human articular chondrocyte cell strain HC30-0198 (described in Example 1) was thawed, and cultured in monolayer in T150 tissue culture flasks (Corning Costar, Cambridge, Mass.) as described above to 1-5 days post-confluence. Test cultures were rinsed in PBS, and preincubated for 2 hours with 10 ml of serum-free DMEM containing 5 μM DBH (synthetic), in its free base or trifluoroacetic acid salt form. An additional 10 ml of serum-free DMEM containing 5 μM DBH, 4 ng/ml recombinant human interleukin-1β (rhIL-1β; final concentration of 2 ng/ml) (R&D Systems, Minneapolis, Minn.), and 2% antibiotic solution (final concentration of 1%), were then added for 24 hours.
Two control cultures were run in parallel: one without DBH (rhIL-1β alone), and another without DBH or rhIL-1β.
Total RNA was fixed to the membrane using a Stratalinker® 1800 UV Crosslinker (Stratagene, La Jolla, Calif.). […]
The blot was successively washed two times in 2×SSC/0.05% SDS (15 min/wash at room temperature), and two times in 0.1×SSC/0.1% SDS (30 minutes/wash at 65° C.). The blot was allowed to air dry, and the radioactive signal was visualized and quantified using a Fujifilm, BAS-1500 phosphorimager (Fuji, Stamford, Conn.). […]

Regarding `NC1=NC(=O)C(=C2CCNC(=O)c3[nH]ccc32)N1` [DBH, 4-(2-amino-4-oxo-2-imidazolin-5-ylidene)-4,5,6,7-tetrahydropyrrolo(2,3-c) azepine-8-one], at JAK3, the Ki amounted to 286 ± 16 nM.

For `NC1=NC(=O)C(=C2CCNC(=O)c3[nH]ccc32)N1` [DBH-2FB], the “inhibition of rhIL-1β-induced mRNAs, compared with the trifluoroacetic acid salt form” value in test [1] was “to a greater extent than the trifluoroacetic acid salt form of DBH”.
